Assay results as given in patent US20100190711A1, “BIG GASTRIN I AS A THERAPEUTIC AGENT” (priority 2007, published 2010).
Where a SMILES comes first, the peptide text is derived from it. [ ]: non-standard residue; d: D form. pGlu = O=C1CC[C@@H](C(=O)O)N1

Legend:
HIV-1IIIB = test: HIV-1 antiviral assay (CPE reduction, MTS) in CEM-SS cells; assay type: cell-based; conditions: peptide 10 micrograms per ml; 6 days post-infection
CEM-SS cells = test: Cytotoxicity (MTS cell viability) in the HIV-1 assay; conditions: CEM-SS cells, MTS; peptide 10 micrograms per ml
MRC-5 cells = test: Cytotoxicity (CellTiter 96 cell viability) in the HCMV assay; conditions: MRC-5 cells, 6 days incubation
[1] = Cytotoxicity (MTS cell viability) in the HIV-1 assay; conditions: human, CEM-SS cells (uninfected, cells plus peptide only)
Streptococcus pneumoniae = assay type: cell-based; conditions: 5 micrograms per ml
[2] = Cytotoxicity (CellTiter 96 cell viability) in the HCMV assay; conditions: human, MRC-5 cells (embryonal lung fibroblasts)
MRSA = conditions: 5 micrograms per ml
Pseudomonas aeruginosa = assay type: cell-based; conditions: 5 micrograms per ml
in vitro = conditions: human, HepG2-2.2.15 cells

With `CC(C)(C)NC(=O)[C@@H]1CN(Cc2cccnc2)CCN1C[C@@H](O)C[C@@H](Cc1ccccc1)C(=O)N[C@H]1c2ccccc2C[C@H]1O` [Indinavir, indinavir] the “% CPE reduction in HIV-1 infected CEM-SS cells” value (HIV-1IIIB) was 100%.

In the case of `Cc1cn([C@H]2C[C@H](N=[N+]=[N-])[C@@H](CO)O2)c(=O)[nH]c1=O` [AZT, reference compound], the “% Cell viability” value (CEM-SS cells) is reported as 97% and the “% CPE reduction in HIV-1 infected CEM-SS cells” value (HIV-1IIIB) is reported as 99%.

With `Nc1nc(O)c2ncn(COC(CO)CO)c2n1` [Ganciclovir, reference compound] the “% Cell viability” value (MRC-5 cells) was 100%.

For `CSCC[C@H](NC(=O)[C@H](Cc1c[nH]c2ccccc12)NC(=O)CNC(=O)[C@H](Cc1ccc(O)cc1)NC(=O)[C@H](C)NC(=O)[C@H](CCC(=O)O)NC(=O)[C@H](CCC(=O)O)NC(=O)[C@H](CCC(=O)O)NC(=O)[C@H](CCC(=O)O)NC(=O)[C@H](CCC(=O)O)NC(=O)[C@H](CC(C)C)NC(=O)[C@H](Cc1c[nH]c2ccccc12)NC(=O)[C@@H]1CCCN1C(=O)CNC(=O)[C@H](CCC(N)=O)NC(=O)[C@H](CCCCN)NC(=O)[C@H](CCCCN)NC(=O)[C@H](CO)NC(=O)[C@@H]1CCCN1C(=O)[C@H](CC(=O)O)NC(=O)[C@H](C)NC(=O)[C@@H](NC(=O)[C@H](CC(C)C)NC(=O)[C@H](Cc1c[nH]cn1)NC(=O)[C@@H]1CCCN1C(=O)[C@@H]1CCCN1C(=O)CNC(=O)[C@H](CCC(N)=O)NC(=O)[C@@H]1CCCN1C(=O)CNC(=O)[C@H](CC(C)C)NC(=O)[C@@H]1CCC(=O)N1)C(C)C)C(=O)N[C@@H](CC(=O)O)C(=O)N[C@@H](Cc1ccccc1)C(N)=O` [Big Gastrin I] ([pGlu]LGPQGPPHLVADPSKKQGPWLEEEEEAYGWMDF-NH2), the viability at 10 micrograms per ml [1] was 100%, the “% inhibition” value (Streptococcus pneumoniae) was 0.0% and the viability at 144 h [2] was 100%. For the same molecule, the “% inhibition” value (MRSA) was 0.0%, the “% inhibition” value (Pseudomonas aeruginosa) was 0.0% and the viability at 144 h, 10 micrograms per ml (in vitro) was 88.7%.
